From ChEMBL document CHEMBL1201862, “PubChem BioAssay data set” (2004) come the findings set out here.

One experiment is described as follows: cells. The format is functional, cell-based. Particulars: HEK-CNG.
A further experiment deals with T1, Galanin receptor type 3 (Homo sapiens, UniProt O60755).
T1 sequence (O60755 whole entry): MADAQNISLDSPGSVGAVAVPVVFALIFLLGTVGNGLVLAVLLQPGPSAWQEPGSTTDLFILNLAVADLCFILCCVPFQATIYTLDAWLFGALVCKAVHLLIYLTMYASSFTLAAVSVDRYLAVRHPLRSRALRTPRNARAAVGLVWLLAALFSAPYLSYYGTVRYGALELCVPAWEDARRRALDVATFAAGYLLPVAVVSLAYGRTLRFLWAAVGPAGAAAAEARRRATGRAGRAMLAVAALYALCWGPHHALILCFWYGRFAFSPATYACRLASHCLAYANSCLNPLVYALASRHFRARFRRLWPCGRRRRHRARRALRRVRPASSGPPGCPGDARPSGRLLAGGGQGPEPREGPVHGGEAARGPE
In words: Fluorescence-based cell-based primary high throughput dose response assay to identify antagonists of the Galanin Receptor 3 (GalR3). The class given is functional.

The nature of experiment [1]: HEK293 cell cytotoxicity, dose response, cytotoxicity control, plate reader, cherry-picked samples (AID 743446). The format is functional, cell-based.
The nature of experiment [2]: A549 cell cytotoxicity, dose response, cytotoxicity control, plate reader, cherry-pick, antagonist series (AID 743412). The format is functional, cell-based.
Experiment [3] can be described thus: HepG2 cell cytotoxicity, dose response, cytotoxicity control, plate reader, cherry-pick, antagonist series (AID 743416). The format is functional, cell-based.
Experiment [4] concerns the target T2, Oxysterols receptor LXR-beta (Homo sapiens, UniProt P55055).
T2 sequence (P55055 whole entry): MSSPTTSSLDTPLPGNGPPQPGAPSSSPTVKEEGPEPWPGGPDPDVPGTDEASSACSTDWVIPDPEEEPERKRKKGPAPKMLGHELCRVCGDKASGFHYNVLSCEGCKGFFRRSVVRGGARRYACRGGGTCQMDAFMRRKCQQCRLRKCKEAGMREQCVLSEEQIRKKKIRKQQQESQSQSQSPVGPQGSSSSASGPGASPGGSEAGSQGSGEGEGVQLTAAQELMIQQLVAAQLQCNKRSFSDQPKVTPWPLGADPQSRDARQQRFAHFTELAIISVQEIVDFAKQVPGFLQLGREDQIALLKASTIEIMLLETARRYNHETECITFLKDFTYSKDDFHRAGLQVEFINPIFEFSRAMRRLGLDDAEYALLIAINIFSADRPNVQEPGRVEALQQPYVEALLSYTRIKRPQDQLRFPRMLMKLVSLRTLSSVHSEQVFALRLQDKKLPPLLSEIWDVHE
In words: LXR agonists, Gal4 luciferase reporter, dose response, counter-screen for ssDAF-12 agonist project, cell-based, luminescence, HEK293, S. stercoralis campaign (AID 720737). The format is functional. Particulars: read-out: IC50 (the source's name).

Experiment [5] is described as follows: Luminescence-based cell-based high throughput dose response assay to identify activators of the DAF-12 from the parasite S. stercoralis (ssDAF-12). The format is functional.
The target in a further experiment is Large T antigen (Simian virus 40, UniProt P03070). The class given is functional, Betapolyomavirus macacae.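 Note: Confirmatory-stage PubChem screen for compounds that inhibit SV40 T antigen.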
Experiment [6] can be described thus: inhibitors of Vif binding to APOBEC3G peptide, primary screen, biochemical, TR-FRET, GST-Vif 1-94, biotin-A3G peptide, dose response retest (AID 1117319).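 Note: TR-FRET signal of purified GST-Vif binding a biotinylated A3G peptide; inhibitors lower the FRET signal by blocking Vif and A3G binding.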 The format is functional.
Experiment [7] is described as follows: inhibitors of HIV Env-driven cell fusion, dose response, cherry-pick (AID 652057). The class given is functional, cell-based.
Experiment [8] is described as follows: P. falciparum 3D7-ScDHODH growth inhibitors, dose response, SYBR Green, dry powder samples (AID 1159570).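 Note: parasite growth measured after 72 hours of compound exposure.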 The format is functional, cell-based.
The nature of experiment [9]: P. falciparum Dd2 growth inhibitors, dose response, SYBR Green, cherry-picked samples (AID 1159567). The format is functional, cell-based.
Experiment [10] in a line: ZM109 Env clade C HIV-1 fusion inhibitors, dose response, HeLa effector, CEM target cells, luciferase, cherry-pick (AID 652058). The class given is functional, cell-based.
Experiment [11] is described as follows: inhibitors of clade B AD8 Env fusion, dose response, cell-based, cherry-pick (AID 652062).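 Note: luciferase signal from cell-cell fusion driven by HIV-1 clade B AD8 Env; potency is for inhibitors of fusion seen as a drop in luminescence.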 The class given is functional.
Experiment [12] is described as follows: P. falciparum ATP4 D1247Y mutant growth inhibitors, dose response, NITD609-resistant line, SYBR Green, dry powder (AID 1159571).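 Note: parasites synchronized at ring stage by sorbitol before testing.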 The format is functional, cell-based.
The nature of experiment [13]: P. falciparum Dd2 growth inhibitors, dose response, SYBR Green, dry powder samples (AID 1159566).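 Note: potency for growth inhibition with lower SYBR green DNA signal.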 The format is functional, cell-based.
The target in another experiment is Paired box protein Pax-8 (Homo sapiens, UniProt Q06710). The experiment in a line: inhibitors of PAX8-driven TPO luciferase reporter, dose response, RMG-I cells, cherry-pick (AID 687027).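 Note: luciferase reporter driven by Pax8 target thyroperoxidase promoter measured by SteadyGlo luminescence.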 The format is functional, cell-based.
Experiment [14] in a line: IGROV1 ovarian cancer cell cytotoxicity, dose response, PAX8 inhibitor project, plate reader, dry powder samples (AID 743043). Conditions: IGROV-1. The class given is functional, cell-based.
In experiment [15] the target is Disintegrin and metalloproteinase domain-containing protein 17 (Homo sapiens, UniProt P78536). In words: ADAM17 protease inhibitors, dose response, counter-screen for ADAM10 exosite inhibitor project, biochemical, quenched FRET substrate (AID 743253).
Experiment [16] in a line: ADAM10 inhibitors, peptide cleavage, dose response, biochemical, QFRET (AID 743254).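 Note: ADAM10 enzyme with the DM2 quenched FRET peptide as substrate; EDANS fluorescence gain as the protease cuts the substrate; inhibitor potency against ADAM10 proteolytic activity.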
The target of experiment [17] is T3, DNA repair protein RAD52 homolog (Homo sapiens, UniProt P43351).
T3 sequence (P43351 whole entry): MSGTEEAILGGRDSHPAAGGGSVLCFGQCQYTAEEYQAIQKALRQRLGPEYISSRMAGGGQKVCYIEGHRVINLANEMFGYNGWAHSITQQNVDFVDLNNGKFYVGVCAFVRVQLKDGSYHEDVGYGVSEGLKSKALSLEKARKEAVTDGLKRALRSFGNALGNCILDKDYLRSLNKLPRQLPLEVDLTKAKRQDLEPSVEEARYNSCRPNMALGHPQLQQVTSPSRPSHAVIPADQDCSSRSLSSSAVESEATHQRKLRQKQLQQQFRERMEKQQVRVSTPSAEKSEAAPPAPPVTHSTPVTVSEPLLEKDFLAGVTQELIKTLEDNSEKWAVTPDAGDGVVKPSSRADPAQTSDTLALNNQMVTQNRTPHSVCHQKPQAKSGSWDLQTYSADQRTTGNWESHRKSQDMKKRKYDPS
The class given is functional, biochemical.

Activity calls are given as the source filed them. Where only a bound is given, the exact number is not on record here.

Paired box protein Pax-8, sequence (Q06710 whole entry): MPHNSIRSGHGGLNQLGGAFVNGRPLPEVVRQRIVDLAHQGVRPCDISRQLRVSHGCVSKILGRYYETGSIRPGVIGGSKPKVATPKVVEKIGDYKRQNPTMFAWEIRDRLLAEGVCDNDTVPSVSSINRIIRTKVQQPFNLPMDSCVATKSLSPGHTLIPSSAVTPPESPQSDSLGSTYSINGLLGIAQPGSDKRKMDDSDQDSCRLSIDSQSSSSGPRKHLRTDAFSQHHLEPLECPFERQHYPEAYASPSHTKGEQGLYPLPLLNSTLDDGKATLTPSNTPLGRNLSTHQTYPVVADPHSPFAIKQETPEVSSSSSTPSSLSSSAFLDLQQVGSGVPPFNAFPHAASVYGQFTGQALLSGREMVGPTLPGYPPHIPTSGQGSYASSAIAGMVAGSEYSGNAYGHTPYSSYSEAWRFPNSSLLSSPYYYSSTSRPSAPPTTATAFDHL
Disintegrin and metalloproteinase domain-containing protein 17, sequence (P78536 whole entry, the tested form may be a part): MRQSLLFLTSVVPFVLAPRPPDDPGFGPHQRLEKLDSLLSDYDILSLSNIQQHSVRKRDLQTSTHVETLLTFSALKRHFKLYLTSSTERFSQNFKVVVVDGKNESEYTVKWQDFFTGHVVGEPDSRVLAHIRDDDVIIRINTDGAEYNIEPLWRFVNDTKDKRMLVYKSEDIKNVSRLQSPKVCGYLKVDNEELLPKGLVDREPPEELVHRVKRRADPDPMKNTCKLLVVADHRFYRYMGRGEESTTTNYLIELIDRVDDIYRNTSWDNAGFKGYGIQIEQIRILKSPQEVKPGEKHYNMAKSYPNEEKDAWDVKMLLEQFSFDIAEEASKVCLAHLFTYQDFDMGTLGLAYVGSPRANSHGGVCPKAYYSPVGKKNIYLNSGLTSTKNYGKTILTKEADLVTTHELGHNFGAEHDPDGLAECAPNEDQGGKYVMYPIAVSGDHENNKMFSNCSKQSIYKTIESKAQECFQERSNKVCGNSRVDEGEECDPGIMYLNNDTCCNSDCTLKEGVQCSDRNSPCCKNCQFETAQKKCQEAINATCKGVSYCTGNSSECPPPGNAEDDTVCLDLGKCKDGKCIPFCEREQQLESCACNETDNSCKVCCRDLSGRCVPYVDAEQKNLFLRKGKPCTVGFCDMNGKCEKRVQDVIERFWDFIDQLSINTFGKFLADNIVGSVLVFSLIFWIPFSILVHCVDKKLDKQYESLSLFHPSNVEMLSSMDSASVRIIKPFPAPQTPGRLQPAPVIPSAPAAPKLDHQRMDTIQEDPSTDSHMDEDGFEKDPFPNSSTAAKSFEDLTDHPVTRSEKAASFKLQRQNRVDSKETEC
Large T antigen, sequence (P03070 whole entry): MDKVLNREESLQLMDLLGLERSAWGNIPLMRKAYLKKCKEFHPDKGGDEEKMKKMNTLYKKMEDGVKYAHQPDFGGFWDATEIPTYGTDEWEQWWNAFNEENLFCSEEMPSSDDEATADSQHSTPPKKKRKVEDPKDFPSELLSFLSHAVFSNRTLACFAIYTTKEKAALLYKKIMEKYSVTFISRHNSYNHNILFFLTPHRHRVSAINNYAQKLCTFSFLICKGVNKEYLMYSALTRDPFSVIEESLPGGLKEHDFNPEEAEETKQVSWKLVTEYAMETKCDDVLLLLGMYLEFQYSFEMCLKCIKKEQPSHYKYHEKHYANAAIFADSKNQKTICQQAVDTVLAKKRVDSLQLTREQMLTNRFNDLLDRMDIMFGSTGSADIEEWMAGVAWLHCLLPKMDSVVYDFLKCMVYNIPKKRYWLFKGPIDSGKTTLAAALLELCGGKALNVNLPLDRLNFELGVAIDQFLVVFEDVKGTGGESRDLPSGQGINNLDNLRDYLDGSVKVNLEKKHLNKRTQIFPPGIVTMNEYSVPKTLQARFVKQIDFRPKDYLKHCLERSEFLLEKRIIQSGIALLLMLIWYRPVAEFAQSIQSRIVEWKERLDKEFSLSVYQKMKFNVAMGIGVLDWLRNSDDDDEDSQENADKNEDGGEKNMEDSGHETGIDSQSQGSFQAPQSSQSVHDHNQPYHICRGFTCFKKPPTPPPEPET

For `O=C(Nc1nc(-c2ccc(Cl)cc2Cl)cs1)c1ccc(OCC2CCCO2)cc1` (centres undefined), the EC50 in the experiment “cells” was > 29.9 µM (inactive). Also, on Galanin receptor type 3, the IC50 was 1.07 µM (active).
With `COc1ccc2cc(C#N)c(Nc3cccc(F)c3)nc2c1`, the AC50 in experiment [1], in experiment [2] and in experiment [3] was > 52 µM (inactive) throughout.
For the compound `COCCCNc1nc2c(-c3ccc(C)cc3)nnn2c2ccccc12`, the EC50 in experiment [4] is > 67.5 µM (inactive). Besides, in [5], the IC50 was > 67.5 µM (inactive).
With `CCN(CC)c1ccc(NC(=O)c2ccco2)cc1`, the IC50 was 5.01 µM (active) at Large T antigen and > 100 µM (active) in experiment [6].
`CCS(=O)(=O)c1ccc2oc(Nc3cccc(OC)c3)nc2c1`: the IC50 in experiment [6] was > 100 µM (active).
As to `Clc1cccc(-c2nc3c4ccccc4ccn3c2Cc2ccsc2)c1`, the EC50 in experiment [4] was > 67.6 µM (inactive). The IC50 in experiment [5] is > 67.6 µM (inactive).
Regarding `C[C@@H](NC(=O)C[C@H]1C[C@@H]2c3cc(NS(=O)(=O)c4ccc(F)cc4)ccc3O[C@@H]2[C@H](CO)O1)c1ccccc1`, the AC50 in experiment [7] was 1.12 µM (active); in experiment [8] it was 2.76 µM (active); in [9], 2.22 µM (active); in [10], 3.32 µM (active); in [11] it was 31.7 µM (active); in experiment [12] it was 1.09 µM (active). The AC50 in experiment [13] was 1.4 µM (active).
As to `C[C@@H]1CCCCO[C@@H](CN(C)Cc2ccc(C(F)(F)F)cc2)[C@H](C)CN([C@H](C)CO)C(=O)c2cc(NC(=O)c3ccccc3)ccc2O1`, the AC50 was 9.55 µM (active) on Paired box protein Pax-8 and 40.9 µM (active) in experiment [14].
As to `COc1ccc(-n2c(Cc3cccs3)nnc2SCC(=O)Nc2ccc(OCc3ccccc3)cc2)cc1`, the IC50 in experiment [15] and in [16] was > 69.5 µM (inactive) each time.
As for `c1cc(OCCCN2CCCCC2)ccc1CN1CCCCC1` [JNJ-5207852], the AC50 in [17] is 10.3 µM (active).
